Where “and” joins values, the source holds several entries; their conditions need not be identical. Identical values can stand only once.
Key:
AHR [1] = biological target: T1, AHR (Homo sapiens, UniProt P35869); test: In vitro assay 1: antagonism in human cell line (transactivation assay, kynurenic acid prestimulated); details: Assay 1: AHR-luc Hum Antagonism IC50 [M], 150 μM kynurenic acid, 20 hours, firefly luciferase
T1 sequence (P35869 11-848): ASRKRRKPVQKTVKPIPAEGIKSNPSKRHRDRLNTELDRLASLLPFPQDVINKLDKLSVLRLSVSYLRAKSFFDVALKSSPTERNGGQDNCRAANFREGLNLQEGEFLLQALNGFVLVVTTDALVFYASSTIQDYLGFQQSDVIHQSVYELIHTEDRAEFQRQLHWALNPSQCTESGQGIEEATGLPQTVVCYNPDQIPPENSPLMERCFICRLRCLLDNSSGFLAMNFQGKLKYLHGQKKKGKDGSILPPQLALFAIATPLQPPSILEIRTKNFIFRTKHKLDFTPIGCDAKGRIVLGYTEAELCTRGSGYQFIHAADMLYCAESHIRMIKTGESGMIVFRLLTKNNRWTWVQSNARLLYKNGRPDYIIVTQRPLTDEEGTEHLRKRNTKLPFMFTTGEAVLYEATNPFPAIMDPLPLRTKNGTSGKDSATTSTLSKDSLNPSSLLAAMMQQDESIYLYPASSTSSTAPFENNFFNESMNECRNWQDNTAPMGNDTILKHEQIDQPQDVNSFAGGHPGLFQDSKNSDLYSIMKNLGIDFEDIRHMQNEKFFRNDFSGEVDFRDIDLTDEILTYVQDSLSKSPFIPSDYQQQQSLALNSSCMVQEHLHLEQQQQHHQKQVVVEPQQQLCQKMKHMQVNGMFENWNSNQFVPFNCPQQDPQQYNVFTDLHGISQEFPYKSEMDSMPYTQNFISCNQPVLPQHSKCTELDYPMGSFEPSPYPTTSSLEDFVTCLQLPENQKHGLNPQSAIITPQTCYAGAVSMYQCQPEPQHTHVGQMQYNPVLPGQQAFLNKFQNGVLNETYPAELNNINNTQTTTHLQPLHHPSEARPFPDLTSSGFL

AHR [2] = biological target: T1, AHR; test: In vitro assay 2: agonism in human cell line (transactivation assay); details: Assay 2: AHR-luc Hum Agonism IC50 [M], no kynurenic acid, 20 hours, firefly luciferase
[3] = system: AHR-regulated gene CYP1A1; test: In vitro assay 3: AHR-regulated CYP1A1 expression in human cell line (U937, qPCR); details: Homo sapiens, U-937, 6 h, read-out: Assay 3: Hum CYP1A1 Antagonism IC50 [M], U937 cells, 200 μM KA, 6 hours, qPCR
[4] = system: TNFa production by LPS-stimulated human monocytes; test: In vitro assay 4: rescue of TNFa production from human primary monocytes; type: cell-based; details: concentration (of 1, 0.3, 0.1 μM tested) at which highest TNFa rescue was observed; one value per donor
Procedure: In Vitro Assay 4: Rescue of TNFa Production from Human Primary Monocytes
The ability of the substances to enhance immune cell activity was determined. The substances were tested for their capacity to reverse KA-induced inhibition of TNFa production by LPS-stimulated human monocytes. Human monocytes were purified by negative selection from donor PBMCs using Miltenyi beads and seeded at 2×10^5 cells/well in complete growth medium (RPMI 1640, 10% FCS). Monocytes were incubated with 10 ng/mL LPS (0127:68, #L4516, Sigma) and 200 μM KA (#3375, Sigma) and substances were added at concentrations of 1 μM, 0.3 μM and 0.1 μM and cultured for 18 hours. LPS alone served as the positive control. TNFa production in the supernatant was measured by Meso Scale Discovery immunassay and the ability of the substances to rescue TNFa production was calculated as a percentage of LPS stimulation and KA-induced inhibition and normalized to the donor-specific response with the reference AHR antagonist compound GNF-351 (Smith et al., J Pharmacol Exp Ther, 2011, 338(1):318-27).

SMILES: CC(C)(O)C(NC(=O)c1cc(-c2ccc(Cl)cc2)nn(-c2cccc(F)c2)c1=O)C(F)(F)F (stereo not shown) [Example 277, 6-(4-Chlorophenyl)-2-(3-fluorophenyl)-3-oxo-N-(1,1,1-trifluoro-3-hydroxy-3-methylbutan-2-yl)-2,3-dihydropyridazine-4-carboxamide]
- IC50 (AHR [1]): 4.94e-09 M
- IC50 (AHR [2]): > 2e-05 M
- IC50 [3]: 2.08e-08 M

SMILES: CC(NC(=O)c1cc(-c2ccc(Cl)cc2)nn(-c2cccc(F)c2)c1=O)C(C)(C)O (stereo not shown) [Example 281, 6-(4-Chlorophenyl)-2-(3-fluorophenyl)-N-(3-hydroxy-3-methylbutan-2-yl)-3-oxo-2,3-dihydropyridazine-4-carboxamide]
- IC50 (AHR [1]): 2.2e-08 M
- IC50 (AHR [2]): > 2e-05 M
- IC50 [3]: 7.59e-08 M

SMILES: O=C(N[C@H](CO)C(F)(F)F)c1cc(-c2ccc(C(F)F)cc2)nn(-c2cccc(F)c2)c1=O [Example 296, 6-[4-(Difluoromethyl)phenyl]-2-(3-fluorophenyl)-3-oxo-N-[(2R)-1,1,1-trifluoro-3-hydroxypropan-2-yl]-2,3-dihydropyridazine-4-carboxamide]
- IC50 (AHR [1]): 3.66e-09 M
- IC50 (AHR [2]): > 2e-05 M
- IC50 [3]: 6.22e-09 M

SMILES: CC[C@@H](CO)NC(=O)c1cc(-c2ccc(Cl)c(Cl)c2)nn(-c2cccc(F)c2)c1=O [Example 306, 6-(3,4-Dichlorophenyl)-2-(3-fluorophenyl)-N-[(2S)-1-hydroxybutan-2-yl]-3-oxo-2,3-dihydropyridazine-4-carboxamide]
- IC50 (AHR [1]): 1.06e-07 M
- IC50 (AHR [2]): > 2e-05 M
- IC50 [3]: 1.75e-07 M

SMILES: COC[C@@H](CO)NC(=O)c1cc(-c2ccc(Cl)cc2)nn(-c2cccc(F)c2)c1=O [Example 314, 6-(4-chlorophenyl)-2-(3-fluorophenyl)-N-[(2R)-1-hydroxy-3-methoxypropan-2-yl]-3-oxo-2,3-dihydropyridazine-4-carboxamide]
- IC50 (AHR [1]): 9.54e-08 M
- IC50 (AHR [2]): > 2e-05 M
- IC50 [3]: 2.31e-07 M

SMILES: COC(=O)[C@@H](CO)NC(=O)c1cc(-c2ccc(Cl)cc2)nn(-c2cccc(F)c2)c1=O [Example 315, methyl N-{[6-(4-chlorophenyl)-2-(3-fluorophenyl)-3-oxo-2,3-dihydropyridazin-4-yl]carbonyl}-D-serinate]
- IC50 (AHR [1]): 8.53e-08 M
- IC50 (AHR [2]): > 2e-05 M
- IC50 [3]: 2e-06 M

SMILES: O=C(N[C@H]1C[C@@H](O)C1)c1cc(-c2ccc(Cl)cc2)nn(-c2cccc(F)c2)c1=O [Example 324, 6-(4-chlorophenyl)-2-(3-fluorophenyl)-N-(cis-3-hydroxycyclobutyl)-3-oxo-2,3-dihydropyridazine-4-carboxamide]
- IC50 (AHR [1]): 4.67e-08 M
- IC50 (AHR [2]): > 2e-05 M
- IC50 [3]: 8.18e-08 M

SMILES: O=C(NCC1(O)COC1)c1cc(-c2ccc(Cl)cc2)nn(-c2cccc(F)c2)c1=O [Example 331, 6-(4-chlorophenyl)-2-(3-fluorophenyl)-N-[(3-hydroxyoxetan-3-yl)methyl]-3-oxo-2,3-dihydropyridazine-4-carboxamide]
- IC50 (AHR [1]): 7.87e-08 M
- IC50 (AHR [2]): > 2e-05 M
- IC50 [3]: 1.42e-07 M

SMILES: CC(C)[C@@H](CO)NC(=O)c1cc(-c2ccc(Cl)cc2)nn(-c2cccc(C#N)c2)c1=O [Example 361, 6-(4-chlorophenyl)-2-(3-cyanophenyl)-N-[(2S)-1-hydroxy-3-methylbutan-2-yl]-3-oxo-2,3-dihydropyridazine-4-carboxamide]
- IC50 (AHR [1]): 1.66e-07 M
- IC50 (AHR [2]): > 2e-05 M
- IC50 [3]: 2.96e-07 M

SMILES: Cc1cccc(-n2nc(-c3ccc(Cl)cc3)cc(C(=O)N[C@H](CO)C(C)C)c2=O)c1 [Example 365, 6-(4-chlorophenyl)-N-[(2S)-1-hydroxy-3-methylbutan-2-yl]-2-(3-methylphenyl)-3-oxo-2,3-dihydropyridazine-4-carboxamide]
- IC50 (AHR [1]): 4.18e-07 M
- IC50 (AHR [2]): > 2e-05 M
- IC50 [3]: > 1e-06 M

SMILES: Cc1cccc(-n2nc(-c3ccc(Cl)cc3)cc(C(=O)N[C@@H](C)CO)c2=O)c1 [Example 369, 6-(4-chlorophenyl)-N-[(2S)-1-hydroxypropan-2-yl]-2-(3-methylphenyl)-3-oxo-2,3-dihydropyridazine-4-carboxamide]
- IC50 (AHR [1]): 9.73e-07 M
- IC50 (AHR [2]): > 2e-05 M
- IC50 [3]: > 1e-06 M

SMILES: C[C@@H](CO)NC(=O)c1cc(-c2ccc(N3CCOCC3)cc2)nn(-c2cccc(F)c2)c1=O [Example 374, 2-(3-fluorophenyl)-N-[(2S)-1-hydroxypropan-2-yl]-6-[4-(morpholin-4-yl)phenyl]-3-oxo-2,3-dihydropyridazine-4-carboxamide]
- IC50 (AHR [1]): 2.65e-08 M
- IC50 (AHR [2]): > 2e-05 M
- IC50 [3]: > 3e-07 M

SMILES: CC(C)[C@@H](CO)NC(=O)c1cc(-c2ccc(N(C)C)c(Cl)c2)nn(-c2cccc(F)c2)c1=O [Example 375, 6-[3-chloro-4-(dimethylamino)phenyl]-2-(3-fluorophenyl)-N-[(2S)-1-hydroxy-3-methylbutan-2-yl]-3-oxo-2,3-dihydropyridazine-4-carboxamide]
- IC50 (AHR [1]): 3.05e-08 M
- IC50 (AHR [2]): > 2e-05 M
- IC50 [3]: 5.73e-08 M

SMILES: CN(C)c1ccc(-c2cc(C(=O)NC(CO)C(F)(F)F)c(=O)n(-c3cccc(F)c3)n2)cc1Cl (stereo not shown) [Example 376, 6-[3-chloro-4-(dimethylamino)phenyl]-2-(3-fluorophenyl)-3-oxo-N-(1,1,1-trifluoro-3-hydroxypropan-2-yl)-2,3-dihydropyridazine-4-carboxamide]
- IC50 (AHR [1]): 3.97e-08 M
- IC50 (AHR [2]): > 2e-05 M
- IC50 [3]: 1.12e-07 M

SMILES: CC(C)(O)[C@@H](NC(=O)c1cc(-c2ccc(OC(F)(F)F)cc2)nn(-c2cccc(F)c2)c1=O)C1CC1 [Example 379, N-[(1S)-1-cyclopropyl-2-hydroxy-2-methylpropyl]-2-(3-fluorophenyl)-3-oxo-6-[4-(trifluoromethoxy)phenyl]-2,3-dihydropyridazine-4-carboxamide]
- IC50 (AHR [1]): 9.6e-09 M
- IC50 (AHR [2]): > 2e-05 M
- IC50 [3]: 6.9e-09 M

SMILES: C[C@H](NC(=O)c1cc(-c2ccc(OC(F)(F)F)cc2)nn(-c2cccc(F)c2)c1=O)C(C)(C)O [Example 380, 2-(3-fluorophenyl)-N-[(2S)-3-hydroxy-3-methylbutan-2-yl]-3-oxo-6-[4-(trifluoromethoxy)phenyl]-2,3-dihydropyridazine-4-carboxamide]
- IC50 (AHR [1]): 2.8e-08 M
- IC50 (AHR [2]): > 0.0001 M
- IC50 [3]: 6.3e-08 M

SMILES: C[C@H](NC(=O)c1cc(-c2ccc(C(F)F)cc2)nn(-c2cccc(F)c2)c1=O)C(C)(C)O [Example 383, 6-[4-(difluoromethyl)phenyl]-2-(3-fluorophenyl)-N-[(2S)-3-hydroxy-3-methylbutan-2-yl]-3-oxo-2,3-dihydropyridazine-4-carboxamide]
- IC50 (AHR [1]): 2.1e-08 M
- IC50 (AHR [2]): > 2e-05 M
- IC50 [3]: 3.4e-08 M

SMILES: C[C@H](NC(=O)c1cc(-c2ccc(Cl)cc2)nn(-c2cccc(F)c2)c1=O)C(C)(C)O [Example 392, 6-(4-chlorophenyl)-2-(3-fluorophenyl)-N-[(2S)-3-hydroxy-3-methylbutan-2-yl]-3-oxo-2,3-dihydropyridazine-4-carboxamide]
- IC50 (AHR [1]): 2.6e-08 M
- IC50 (AHR [2]): > 2e-05 M
- IC50 [3]: 5.7e-08 M

SMILES: N#C[C@@H](CO)NC(=O)c1cc(-c2ccc(Cl)cc2)nn(-c2cccc(F)c2)c1=O [Example 393, 6-(4-chlorophenyl)-N-[(1S)-1-cyano-2-hydroxyethyl]-2-(3-fluorophenyl)-3-oxo-2,3-dihydropyridazine-4-carboxamide]
- IC50 (AHR [1]): 2.7e-08 M
- IC50 (AHR [2]): > 2e-05 M
- IC50 [3]: 4.6e-08 M

SMILES: Cc1cncc(-c2nc(NCCc3c[nH]c4ccccc34)c3ncn(C(C)C)c3n2)c1 [GNF-351, reference compound]
- Individual Donors Conc of highest rescue [4]: 0.3 µM and 0.1 µM
